According to ChEMBL document CHEMBL1127392, “5-Phenyl-3-ureidobenzazepin-2-ones as cholecystokinin-B receptor antagonists” (J Med Chem, 1994):

Molecular target: T1, Cholecystokinin receptor type A (Cavia porcellus, UniProt Q63931)
T1 sequence (Q63931 whole entry): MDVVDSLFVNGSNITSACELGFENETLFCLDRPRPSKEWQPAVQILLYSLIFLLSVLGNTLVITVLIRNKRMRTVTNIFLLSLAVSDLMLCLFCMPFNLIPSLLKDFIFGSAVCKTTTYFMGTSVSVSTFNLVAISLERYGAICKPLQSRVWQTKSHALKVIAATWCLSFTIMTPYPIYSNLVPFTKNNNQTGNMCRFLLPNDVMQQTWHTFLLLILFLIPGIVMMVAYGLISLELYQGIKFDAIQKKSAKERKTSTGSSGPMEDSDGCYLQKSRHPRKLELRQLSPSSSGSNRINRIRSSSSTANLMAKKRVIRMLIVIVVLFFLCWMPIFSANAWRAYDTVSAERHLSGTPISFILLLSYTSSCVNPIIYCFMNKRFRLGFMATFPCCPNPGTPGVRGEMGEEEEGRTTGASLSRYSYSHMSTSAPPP
Experiment: In vitro binding affinity for the cholecystokinin type A receptor in guinea pig pancreas assayed using [125I]BH-CCK-8 as radioligand

IC50 [nM]	SMILES
560	Cc1ccc2c(c1)N(CC(=O)NC(C)(C)C)C(=O)[C@H](NC(=O)Nc1cccc(Cl)c1)C[C@@H]2C1CCCCC1
176	Cc1ccc2c(c1)N(CC(=O)NC(C)(C)C)C(=O)[C@H](NC(=O)Nc1cccc(Cl)c1)C[C@@H]2c1ccccc1 (stereo in doubt; 4)
> 10000	CC(C)(C)NC(=O)CN1C(=O)[C@@H](NC(=O)Nc2cccc(Cl)c2)C[C@H](C2CCCCC2)c2ccccc21
77	Cc1cccc2c1N(CC(=O)NC(C)(C)C)C(=O)[C@H](NC(=O)Nc1cccc(Cl)c1)C[C@@H]2c1ccccc1
1470	Cc1ccccc1NC(=O)N[C@@H]1C[C@H](c2ccccc2)c2ccccc2N(CC(=O)NC(C)(C)C)C1=O
417	Cc1ccc([C@H]2C[C@@H](NC(=O)Nc3cccc(Cl)c3)C(=O)N(CC(=O)NC(C)(C)C)c3cc(C)ccc32)cc1
130	Cc1ccc2c(c1)N(CC(=O)NC(C)(C)C)C(=O)[C@H](NC(=O)Nc1cccc(Cl)c1)C[C@@H]2c1ccccc1 (stereo in doubt; 43a)
34	Cc1ccc2c(c1)N(CC(=O)OC(C)(C)C)C(=O)[C@H](NC(=O)Nc1cccc(Cl)c1)C[C@@H]2c1ccccc1
320	CC(C)(C)NC(=O)CN1C(=O)[C@H](NC(=O)Nc2cccc(Cl)c2)C[C@H](c2ccccc2)c2ccc(Cl)cc21
69	CC(C)(C)NC(=O)CN1C(=O)[C@H](NC(=O)Nc2cccc(Cl)c2)C[C@H](c2cccc(Cl)c2)c2ccccc21
1140	Cc1ccc(NC(=O)N[C@@H]2C[C@H](c3ccccc3)c3ccccc3N(CC(=O)NC(C)(C)C)C2=O)cc1
317	Cc1ccc2c(c1)[C@@H](c1ccccc1)C[C@@H](NC(=O)Nc1cccc(Cl)c1)C(=O)N2CC(=O)NC(C)(C)C
287	CC(C)(C)NC(=O)CN1C(=O)[C@H](NC(=O)Nc2cccc(Cl)c2)C[C@H](c2ccccc2)c2cc(Cl)ccc21
4.2	CN(C(=O)CN1C(=O)[C@H](NC(=O)Nc2cccc(Cl)c2)C[C@H](c2ccccc2)c2ccccc21)C(C)(C)C
288	Cc1cccc(NC(=O)N[C@@H]2C[C@H](c3ccccc3)c3ccccc3N(CC(=O)NC(C)(C)C)C2=O)c1
460	CC(C)(NC(=O)CN1C(=O)[C@H](NC(=O)Nc2cccc(Cl)c2)C[C@H](c2ccccc2)c2ccccc21)c1ccccc1
144	CCC(C)(C)NC(=O)CN1C(=O)[C@H](NC(=O)Nc2cccc(Cl)c2)C[C@H](c2ccccc2)c2ccccc21
166	COc1cccc(NC(=O)N[C@@H]2C[C@H](c3ccccc3)c3ccccc3N(CC(=O)NC(C)(C)C)C2=O)c1
50	Cc1cccc(NC(=O)N[C@@H]2C[C@H](c3ccccc3)c3ccccc3N(CC(=O)OC(C)(C)C)C2=O)c1
399	CC(C)(C)NC(=O)CN1C(=O)[C@H](NC(=O)Nc2ccc(Cl)cc2)C[C@H](c2ccccc2)c2ccccc21
171	CC(C)(C)NC(=O)CN1C(=O)[C@H](NC(=O)Nc2cccc(Cl)c2)C[C@H](C2CCCCC2)c2ccccc21
144	CC(C)(C)NC(=O)CN1C(=O)[C@H](NC(=O)Nc2cccc(Cl)c2)C[C@H](c2ccccc2)c2ccccc21
71	CCc1ccc2c(c1)N(CC(=O)NC(C)(C)C)C(=O)[C@H](NC(=O)Nc1cccc(Cl)c1)C[C@@H]2c1ccccc1
> 10000	Cc1ccc2c(c1)N(CC(=O)NC(C)(C)C)C(=O)[C@H](NC(=O)Nc1cccc(Cl)c1)C[C@@H]2Cc1ccccc1
363	Cc1ccc2c(c1)N(CC(=O)NC(C)(C)C)C(=O)[C@@H](NC(=O)Nc1cccc(Cl)c1)C[C@H]2c1ccccc1
72	Cc1ccc2c(c1)N(CC(=O)NC(C)(C)C)C(=O)[C@H](NC(=O)Nc1cccc(Cl)c1)C[C@@H]2C(C)C
467	CC1(NC(=O)CN2C(=O)[C@H](NC(=O)Nc3cccc(Cl)c3)C[C@H](c3ccccc3)c3ccccc32)CCCCC1

SMILES	IC50 [nM]
Cc1cccc(NC(=O)N[C@@H]2N=C(c3ccccc3)c3ccccc3N(C)C2=O)c1 [L-365260]	86
